Data taken from patent US8742167B2, “Therapeutic formulations based on asiatic acid and selected salts thereof” (Shanghai Institute of Pharmaceutical Industry, priority 2008, dated 2014).
“And” between values parts separate entries of the source, which are not always exact repeats. Identical values can stand only once. “Also recorded” adds a separate entry of the source. Counter-ions that a name gives are not always drawn. Like-named read-outs stand apart in the source and are kept apart here. Marks after values point to notes of the source that are not given here.

Experiments:
TNF-α = assay: Serological test (ELISA kit) of TNF-α in rats of bleomycin-induced pulmonary fibrosis; format: in vivo, SD rats; conditions: serum; for TNF-α (2nd day) X ± SD: dosing from 2nd day; for TNF-α (7th day) X ± SD: dosing from 7th day
Procedure: TNF-α Kit, Human 96T ELISA kit imported by Shanghai Jingmei
(§1) Male SD rats, body weight 250-300 g. The animals were anesthetized with 3% seconal, laid flat and fixed onto the operating table. The necks of the animals were disinfected with alcohol and cut to expose tracheae. A needle was inserted via the space between tracheal rings centripetally, and 5 mg/kg of bleomycin was injected. The rats were kept upright and rotated, in order to keep the solution uniformly distributed in the lungs. Then the incisions were sutured.
(§2) After the rats regained consciousness, they were randomly grouped. The animals were divided into (i) a group receiving administration on the next day after establishing the model and (ii) a group receiving administration at 7 days after the model was established. Included were 27, 9, and 3 mg/kg p.o.×28 d asiatic acid groups, 0.6 mg/kg p.o.×28 d dexamethasone group, 36 mg/kg p.o.×28 d asiaticoside group, model group, and blank group. Normal saline was administered for the model and blank groups. On the 28th day after asiatic acid and asiaticoside administration, survival and weight ratio of lungs were measured; pathological examination and serological examination were performed.
(§3) Serum samples were prepared according to a standard protocol (centrifuged 3000 rpm, 10 minutes after collection) and were stored at −20° C. Testing was conducted in accordance with kit instructions.

Type III collagen = Type III collagen content, bleomycin rat model; format: in vivo, SD rats
Procedure: as §1, §2

[1] = tested on: pulmonary fibrosis induced by bleomycin in rats; assay: Pathological analysis of lung (HE staining; collagen fiber and elastic fiber dual staining); format: in vivo, SD rats; conditions: asiaticoside 36 mg/kg; administration on the next day after establishing model
Procedure: as §1, §2
The lung tissues were fixed in 10% formalin for 1 week. […] The thickness of sections was […]. Routine hematoxylin-eosin (HE) staining was performed. Dual special staining of collagen fibers and elastic fibers were conducted in order to detect the degree of fibrosis. The staining of the two groups of sections was observed and the results were as follows.

TFG-β = assay: Serological test (ELISA kit) of TFG-β in rats of bleomycin-induced pulmonary fibrosis; format: in vivo, SD rats; conditions: serum; for TFG-β (2nd day) X ± SD: dosing from 2nd day; for TFG-β (7th day) X ± SD: dosing from 7th day
Procedure: TFG-β Kit, Human 96T ELISA kit imported by Shanghai Jingmei
as §1, §2, §3

Hydroxyproline = assay: Measured value of hydroxyproline in experiment of asiatic acid antagonizing fibrosis; format: in vivo, SD rats; parameters: Measured Value of Hydroxyproline (on 2nd day), single animals / Measured Value of Hydroxyproline (on 2nd day), X / Measured Value of Hydroxyproline (on 7th day), single animals / Measured Value of Hydroxyproline (on 7th day), X: unit not given here; conditions: for Measured Value of Hydroxyproline (on 2nd day), X / Measured Value of Hydroxyproline (on 7th day), X: group mean
Procedure: as §1, §2

[2] = tested on: bleomycin-induced pulmonary fibrosis in rats; assay: Lung weight index of bleomycin-induced pulmonary fibrosis in rats; format: in vivo, SD rats; conditions: for lung weight ratio (%): (lung weight/body weight)x100%
Procedure: as §1, §2
Effect of on lung weight index of bleomycin-induced pulmonary fibrosis in rats treated with asiatic acid Body weight and lung weight were measured after the rats were sacrificed. Lung weight ratio=(lung weight/body weight)×100%.

[3] = tested on: bleomycin-induced pulmonary fibrosis in rats; assay: Mortality during experiment days 7-28, bleomycin-induced pulmonary fibrosis in rats; format: in vivo, SD rats
Procedure: as §1, §2

[4] = Solubility in water and methanol (saturated solutions, HPLC); format: physicochemical; conditions: for Solubility: single preparations (inj 1A-1C)
Procedure: Approximately 5 mg of asiatic acid were transferred into a 25 mL volumetric flask, and 1 mL, of methanol was added and mixed well, until the acid had dissolved in the methanol. The volumetric flask then was brought to volume with mobile phase and mixed well. [table] Saturated solutions obtained from starting material and salt in methanol and water were filtered and diluted accordingly with mobile phase. No dilution was performed for asiatic acid in water. Samples were prepared in triplicate except for the sodium salt prepared in methanol, for which two preparations were done.

[5] = asiaticoside 36 mg/kg, individual rats 1-10
[6] = dexamethasone (0.6 mg/kg), individual rats 1-6

What does the source list for `C[C@H]1[C@H](C)CC[C@]2(C(=O)O[C@@H]3O[C@H](CO[C@@H]4O[C@H](CO)[C@@H](O[C@@H]5O[C@H](C)[C@H](O)[C@@H](O)[C@H]5O)[C@H](O)[C@H]4O)[C@@H](O)[C@H](O)[C@H]3O)CC[C@]3(C)C(=CC[C@@H]4[C@@]5(C)C[C@@H](O)[C@H](O)[C@@](C)(CO)[C@@H]5CC[C@]43C)[C@H]12` [Asiaticoside, asiaticoside]?
TNF-α (2nd day) X ± SD (TNF-α; asiaticoside 36 mg/kg): 0.064 ± 0.013 OD value; TNF-α (7th day) X ± SD (TNF-α; asiaticoside 36 mg/kg): 0.091 ± 0.027 OD value; serum levels of type III collagen (Type III collagen; overall statement): significantly decrease bleomycin-induced fibrosis; lung pathology, HE staining [1]: less serious than those of the model group; TFG-β (2nd day) X ± SD (TFG-β; asiaticoside 36 mg/kg): 0.670 ± 0.155 OD value; TFG-β (7th day) X ± SD (TFG-β; asiaticoside 36 mg/kg): 1.181 ± 0.364 OD value; Measured Value of Hydroxyproline (on 2nd day), X (Hydroxyproline; asiaticoside 36 mg/kg): 24.11; Measured Value of Hydroxyproline (on 7th day), X (Hydroxyproline; asiaticoside 36 mg/kg): 26.57; Measured Value of Hydroxyproline (on 2nd day), single animals (Hydroxyproline; [5]): 28.56 and 28.69 and 19.63 and 25.34 and 28.11 and 20.54 and 25.36 and 19.47 and 25.25 and 20.11; Measured Value of Hydroxyproline (on 7th day), single animals (Hydroxyproline; [5]): 28.19 and 24.36 and 28.17 and 24.69 and 29.1 and 25.11 and 25.91 and 24.97 and 29.69 and 25.55; serum levels of hydroxyproline (Hydroxyproline; overall statement): significantly decrease bleomycin-induced fibrosis; lung weight ratio (%) ([2]; asiaticoside 36 mg/kg, started 7 day after model established): 0.80** %; lung weight ratio (%) ([2]; asiaticoside 36 mg/kg, started from the second day): 0.84** %; lung weight (g) X ± SD ([2]; asiaticoside 36 mg/kg, 28-day administration started 7 day after model established): 2.59 ± 0.33 g; lung weight (g) X ± SD ([2]; asiaticoside 36 mg/kg, 28-day administration started from the second day): 2.62 ± 0.38 g; lung weight to body weight ratio ([2]; starting on 2nd or 7th day, compared with the model group): significantly decrease bleomycin-induced lung fibrosis; remaining samples at the end of study ([3]; asiaticoside 36 mg/kg p.o. x 28 d, dosing started on 2nd day, 14 on day 7): 12; number of deaths ([3]; asiaticoside 36 mg/kg p.o. x 28 d, dosing started on 2nd day, days 7-28): 2; number of deaths ([3]; asiaticoside 36 mg/kg p.o. x 28 d, dosing started on 7th day): 2; remaining samples at the end of study ([3]; asiaticoside 36 mg/kg p.o. x 28 d, dosing started on 7th day, 13 in the group): 11; survival / bleomycin-induced death ([3]; rats treated with bleomycin, treatment initiated one day or seven days after bleomycin): largely prevented bleomycin-induced death; also recorded: significantly enhance survival

What does the source list for `C[C@@H]1C[C@H]2[C@@H]3CCC4=CC(=O)C=C[C@]4(C)[C@@]3(F)[C@@H](O)C[C@]2(C)[C@@]1(O)C(=O)CO` [Dexamethasone, reference compound]?
TNF-α (2nd day) X ± SD (TNF-α; dexamethasone 0.6 mg/kg): 0.073 ± 0.006 OD value; TNF-α (7th day) X ± SD (TNF-α; dexamethasone 0.6 mg/kg): 0.060 ± 0.006 OD value; Type III collagen content X ± SD (Type III collagen; Dex (0.6 mg/kg), treatment starting on Day 7): 0.518 ± 0.527; TFG-β (2nd day) X ± SD (TFG-β; dexamethasone 0.6 mg/kg): 0.751 ± 0.214 OD value; TFG-β (7th day) X ± SD (TFG-β; dexamethasone 0.6 mg/kg): 0.717 ± 0.197 OD value; Measured Value of Hydroxyproline (on 2nd day), X (Hydroxyproline; dexamethasone (0.6 mg/kg)): 23.45; Measured Value of Hydroxyproline (on 7th day), X (Hydroxyproline; dexamethasone (0.6 mg/kg)): 27.35; Measured Value of Hydroxyproline (on 2nd day), single animals (Hydroxyproline; [6]): 19.86 and 23.31 and 21.69 and 24.63 and 25.36 and 25.87; Measured Value of Hydroxyproline (on 7th day), single animals (Hydroxyproline; [6]): 25.17 and 27.44 and 25.99 and 29.66 and 28.07 and 27.75; lung weight ratio (%) ([2]; dexamethasone 0.6 mg/kg, started 7 day after model established): 1.14%; lung weight ratio (%) ([2]; dexamethasone 0.6 mg/kg, started from the second day): 1.31%; lung weight (g) X ± SD ([2]; dexamethasone 0.6 mg/kg, 28-day administration started 7 day after model established): 2.05 ± 0.40 g; lung weight (g) X ± SD ([2]; dexamethasone 0.6 mg/kg, 28-day administration started from the second day): 2.06 ± 0.52 g; remaining samples at the end of study ([3]; dexamethasone 0.6 mg/kg p.o. x 28 d, dosing started on 2nd day, 14 on day 7): 6; number of deaths ([3]; dexamethasone 0.6 mg/kg p.o. x 28 d, dosing started on 2nd day, days 7-28): 8; number of deaths ([3]; dexamethasone 0.6 mg/kg p.o. x 28 d, dosing started on 7th day): 7; remaining samples at the end of study ([3]; dexamethasone 0.6 mg/kg p.o. x 28 d, dosing started on 7th day, 13 in the group): 6

What does the source list for `C[C@H]1[C@H](C)CC[C@]2(C(=O)O)CC[C@]3(C)C(=CC[C@@H]4[C@@]5(C)C[C@@H](O)[C@H](O)[C@@](C)(CO)[C@@H]5CC[C@]43C)[C@H]12` [Asiatic acid-Na salt NaOH, asiatic acid sodium salt]?
Solubility ([4]; MeOH, sodium salt): 24080 µg/mL; Solubility ([4]; methanol, organic solvent or mixture, thermodynamic from solid, MeOH, read-out: Solubility): 25400 µg/mL; times more soluble than asiatic acid ([4]; water): ~228 times; Solubility ([4]; water, thermodynamic from solid, water, read-out: Solubility): 6860 µg/mL; Solubility ([4]; water, sodium salt): 6360 µg/mL and 7320 µg/mL
